A short description of series [1]: Cmax in chronic myeloid leukemia patient. It is filed as ADME, organism-based. Particulars: human, in vivo.
A short description of series [2]: Antiproliferative activity against human CML cells. It is filed as functional, cell-based. Particulars: Leukemia cell.
A short description of series [3]: Half life in chronic myeloid leukemia patient. Type of series: ADME, organism-based. Particulars: human, in vivo.

Here are results for two compounds from ChEMBL document CHEMBL1212712, “A pulse at the heart of targeted therapy” (Nat Chem Biol, 2009).

A word on the Cmax: it is the maximum level reached in the sampled fluid or tissue. A word on the IC50: it is the concentration at which inhibition is half-maximal. Read a low IC50 as greater potency in that assay. For orientation: half-life means the time needed for the level to fall by half in the phase considered. A lower half-life goes with fast loss.

Regarding `Cc1nc(Nc2ncc(C(=O)Nc3c(C)cccc3Cl)s2)cc(N2CCN(CCO)CC2)n1.O` [DASATINIB], the Cmax in series [1] was determined as 200 nM. In addition, the IC50 in series [2] was determined as 1 nM. The compound further showed a half-life in series [3] of 3 h.
For the compound `Cc1ccc(NC(=O)c2ccc(CN3CCN(C)CC3)cc2)cc1Nc1nccc(-c2cccnc2)n1` [IMATINIB], in series [1], the Cmax is 2000 nM. This compound also came in with an IC50 in series [2] of 350 nM.
